The values below come from patent publication US9938222B2 (BRISTOL-MYERS SQUIBB COMPANY, priority 2014, dated 2018).

Sequence of human GPR120 (Q5NUL3 whole entry): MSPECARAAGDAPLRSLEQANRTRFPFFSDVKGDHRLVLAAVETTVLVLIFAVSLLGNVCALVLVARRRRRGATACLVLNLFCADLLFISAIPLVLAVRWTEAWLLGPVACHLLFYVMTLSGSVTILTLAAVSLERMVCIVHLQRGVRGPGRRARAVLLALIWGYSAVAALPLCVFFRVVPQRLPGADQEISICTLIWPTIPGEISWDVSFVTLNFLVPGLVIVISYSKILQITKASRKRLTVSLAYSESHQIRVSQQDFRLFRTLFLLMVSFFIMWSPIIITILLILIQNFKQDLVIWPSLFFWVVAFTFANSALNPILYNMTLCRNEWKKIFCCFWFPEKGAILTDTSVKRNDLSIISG

The assay has as its target human GPR120 (Homo sapiens (Human), UniProt Q5NUL3). The experiment in a line: GPR120 pERK AlphaScreen SureFire Assay (human GPR120 pERK assay). In kind it is cell-based. The following applies: CHO cells stably transfected with short form of human GPR120. The source says: GPR120 activity was monitored by measuring phosphorylation of ERK (pERK), since G protein receptors are known to activate the ERK signaling cascade either directly and/or through recruitment of arrestin that serves as a scaffold for downstream signaling events.
GPR120 pERK AlphaScreen SureFire Assay
The human and mouse GPR120-mediated intracellular phosphorylated ERK assays were established using CHOA12 cells stably transfected with the short form of human or mouse GPR120 receptor. Cells were cultured in growth medium consisting of F-12 media (Invitrogen Cat. #11765) with 5% Charcoal/Dextran FBS (Invitrogen Cat. #12676-029), 500 μg/mL GENETICIN® (Life Technologies Cat. #10131-027) and 250 μg/mL Zeocin (Invitrogen Cat. #R250-01). Cells were cryo-preserved at a concentration of 2×10^7 cells/mL, in 90% Charcoal/Dextran FBS and 10% DMSO, and frozen in liquid nitrogen at a low passage number.
For the pERK assay, 2×10^7 cells/mL cryopreserved human and mouse cells were thawed rapidly in a 37° C. water bath and added to a T-225 flask containing 50 mL growth medium. The flasks were placed in a tissue culture incubator overnight (37° C., 5% CO2). The next day, cells were harvested with trypsin (Gibco Cat. #25300-054), resuspended in serum-containing growth medium and counted using a Cellometer and volume adjusted to a concentration of 0.6×10^6 cells/mL. Cells were plated into 384-well clear bottom tissue culture plates (BD Cat. #353962) at 50 μL/well, for a density of 30,000 cells/well using a MULTIDROP® and incubated for 16-18 hours (overnight) at 37° C. with 5% CO2. The next day, cells were serum starved in 30 μL of F-12 media without any serum or antibiotics for 2 hours at 37° C.
Test compounds were 3-fold, 11-point serially diluted in DMSO in a REMP assay plate (Matrix Cat. #4307) by Tecan and 5 μL was transferred into an ECHO source plate (Labcyte Cat. #LC-0200). Cells were then stimulated with 50 nL of compound dilutions using ECHO liquid handler for 7 min at 37° C. Compounds ranged from final assay concentrations of 33.33 μM to 0.56 nM.
The media was then dumped and cells lysed with 20 μL of 1× Lysis buffer from the AlphaScreen SureFire Phospho-ERK 1/2 Kit (Perkin Elmer Cat. #6760617M). The lysis buffer was diluted 5-fold with water before use. The plate was agitated on a shaker for 10 min after which 2 μL was transferred into a 384-well white proxiplate (Perkin Elmer Cat. #6008289). The SureFire assay reagent mix was prepared by mixing 60 parts Reaction Buffer, 10 parts Activation Buffer, 1 part Donor Beads, 1 part Acceptor Beads (Perkin Elmer Cat. #TGRES10K). 3.5 μL/well of this reagent mix was manually added to the proxiplate with a multichannel pipettor. Plates were spun down at 1000 rpm for 2 min, followed by light-protected incubation at room temperature for 2 hours. The plates were read on the Alpha-technology compatible Envision multilabel plate reader using AlphaScreen protocol according to manufacturer's specifications. The agonist effect of compounds was expressed as 100×(average sample-average blank)/(average total-average blank) where sample is the luminescence activity in the presence of test compound, blank is equal to the luminescence activity in the presence of DMSO control and the total is signal induced by 50 μM linolenic acid as reference compound. Activation data for the test compound over a range of concentrations was plotted as percentage activation of the test compound (100%=maximum response). After correcting for background, EC50 values were determined. The EC50 is defined as the concentration of test compound which produces 50% of the maximal response and was quantified using the 4 parameter logistic equation to fit the data.
The human and mouse GPR120-mediated intracellular phosphorylated ERK assays were also established using CHO-K1 cells stably transfected with the short form of human or mouse GPR120 receptor. […]
A general note: In Alpha technology, singlet oxygen from a donor bead excites a nearby acceptor bead.
The compound `CC(C)Oc1ccc(F)c(-c2ccc(OC[C@@H]3C[C@H]3C(=O)O)c(Cl)c2)c1` (racemic) [Example 45, Trans-2-(((3-chloro-2′-fluoro-5′-isopropoxy-[1,1′-biphenyl]-4-yl)oxy)methyl)cyclopropanecarboxylic acid] displayed an EC50 of 220 nM.

`CC(C)Oc1cc(F)c(F)c(-c2ccc(OC[C@H]3C[C@@H]3C(=O)O)c(F)c2)c1` [Example 67, (1S,2S)-2-(((2′,3,3′-Trifluoro-5′-isopropoxy-[1,1′-biphenyl]-4-yl)oxy)methyl)cyclopropanecarboxylic acid]: the EC50 was 230 nM.

As for `CC(C)Oc1ccc(F)c(-c2ccc(C[C@H]3C[C@@H]3CC(=O)O)cc2)c1` (single isomer, unassigned) [Example 36, Trans-(2-((2′-fluoro-5′-isopropoxy-[1,1′-biphenyl]-4-yl)methyl)cyclopropyl)acetic acid], the concentration giving a half-maximal response (EC50) is 60 nM.

`CC(C)Oc1ccc(F)c(-c2ccc(COC[C@@H]3C[C@H]3C(=O)O)cc2)c1` (racemic) [Example 24, Trans-2-(((2′-fluoro-5′-isopropoxy-[1,1′-biphenyl]-4-yl)methoxy)methyl) cyclopropanecarboxylic acid] displayed a half-maximal effective concentration (EC50) of 440 nM.

For `O=C(O)[C@@H]1C[C@H]1CCc1ccc(-c2cc(Oc3ccccc3)ccc2F)cc1` (racemic) [Example 76, Trans-2-(2-(2′-fluoro-5′-phenoxy-[1,1′-biphenyl]-4-yl)ethyl) cyclopropanecarboxylic acid], a half-maximal response (EC50) required 470 nM.

Take `CC(C)Oc1ccc(Cl)c(-c2ccc(CC[C@@H]3C[C@H]3C(=O)O)cc2)c1` (relative stereo) [Example 133, Trans-2-(2-(2′-chloro-5′-isopropoxy-[1,1′-biphenyl]-4-yl)ethyl) cyclopropanecarboxylic acid]: a half-maximal response (EC50) required 1860 nM.

With `CC(C)Oc1ccc(F)c(-c2ccc(OC[C@@H]3C[C@H]3C(=O)O)cc2)c1` (racemic) [Example 1, Trans-2-(((2′-fluoro-5′-isopropoxy-[1,1′-biphenyl]-4-yl)oxy)methyl) cyclopropanecarboxylic acid], a half-maximal effect (EC50) was put at 370 nM.

Regarding `CC(C)Oc1ccc(F)c(-c2ccc(CC[C@@H]3C[C@H]3C(=O)O)cc2)c1` (racemic) [Example 30, Trans-2-(2-(2′-fluoro-5′-isopropoxy-[1,1′-biphenyl]-4-yl)ethyl)cyclopropanecarboxylic acid], the EC50 amounted to 320 nM.

In turn, `CC(C)Oc1cc(-c2ccc(OC[C@@H]3C[C@H]3C(=O)O)cc2)c(F)c(C(F)(F)F)c1` (racemic) [Example 49, Trans-2-(((2′-fluoro-5′-isopropoxy-3′-(trifluoromethyl)-[1,1′-biphenyl]-4-yl)oxy)methyl)cyclopropanecarboxylic acid] returned an EC50 of 1670 nM.

In turn, `CCSc1cccc(-c2ccc(CC[C@@H]3C[C@H]3C(=O)O)cc2)c1` (racemic) [Example 38, Trans-2-(2-(3′-(ethylthio)-[1,1′-biphenyl]-4-yl)ethyl)cyclopropanecarboxylic acid] showed a 50% effective concentration (EC50) of 3240 nM.

`Cc1ccc(Oc2cc(F)c(F)c(-c3ccc(OCC4CC4C(=O)O)c(F)c3)c2)cc1F` (single isomer, unassigned) [Example 108] registered an EC50 of 360 nM.

In turn, `O=C(c1ccccc1)c1cccc(-c2ccc(OC[C@@H]3C[C@H]3C(=O)O)cc2)c1` (racemic) [Example 118, Trans-2-(((3′-benzoyl-[1,1′-biphenyl]-4-yl)oxy)methyl) cyclopropanecarboxylic acid] showed a concentration giving a half-maximal response (EC50) of 460 nM.

With `C=C(C)COc1cc(F)cc(-c2ccc(OC[C@@H]3C[C@H]3C(=O)O)cc2)c1` (racemic) [Example 19, Trans-2-(((3′-fluoro-5′-((2-methylallyl)oxy)-[1,1′-biphenyl]-4-yl)oxy)methyl) cyclopropanecarboxylic acid], the “EC50 (μM)” value was “Not active”.

As to `O=C(O)[C@@H]1CC1COc1ccc(-c2cc(Oc3cccc(F)c3)ccc2F)cc1F` (stereo partly drawn) [Example 97], the half-maximal effective concentration (EC50) came out at 70 nM.

Regarding `COc1cc(OC(C)C)cc(-c2ccc(OC[C@@H]3C[C@H]3C(=O)O)cc2)c1` (racemic) [Example 117, Trans-2-(((3′-isopropoxy-5′-methoxy-[1,1′-biphenyl]-4-yl)oxy)methyl) cyclopropanecarboxylic acid], the EC50 worked out at 1110 nM.

On to `Cc1ccc(Oc2ccc(F)c(-c3ccc(OCC4C[C@@H]4C(=O)O)cc3)c2)cn1` (stereo partly drawn) [Example 116], for which the EC50 worked out at 90 nM.

Consider `O=C(O)[C@@H]1C[C@H]1COc1ccc(-c2cc(Oc3cc(F)cc(F)c3)ccc2F)cc1` (relative stereo) [Example 43, Trans-2-(((5′-(3,5-difluorophenoxy)-2′-fluoro-[1,1′-biphenyl]-4-yl)oxy)methyl)cyclopropanecarboxylic acid], for which the EC50 is 280 nM.

`O=C(O)[C@@H]1C[C@H]1COc1ccc(-c2cc(C(F)(F)F)ccc2F)cc1` (racemic) [Example 123, Trans-2-(((2′-fluoro-5′-(trifluoromethyl)-[1,1′-biphenyl]-4-yl)oxy)methyl)cyclopropanecarboxylic acid] registered a concentration for a half-maximal effect (EC50) of 680 nM.

Compound `O=C(O)[C@@H]1C[C@H]1COc1ccc(-c2cc(C(F)(F)F)ccc2Cl)cc1` (racemic) [Example 121, Trans-2-(((2′-chloro-5′-(trifluoromethyl)-[1,1′-biphenyl]-4-yl)oxy)methyl)cyclopropanecarboxylic acid] registered an EC50 of 1250 nM.

`Cc1ccc(Oc2ccc(F)c(-c3ccc(OCC4CC4C(=O)O)c(F)c3)c2)cc1F` (single isomer, unassigned) [Example 102, Trans-2-(((2′,3-difluoro-5′-(3-fluoro-4-methylphenoxy)-[1,1′-biphenyl]-4-yl)oxy)methyl)cyclopropanecarboxylic acid]: the half-maximal effective concentration (EC50) is 270 nM.

The compound `O=C(O)[C@H]1CC1COc1ccc(-c2cc(Oc3cccc(F)c3)ccc2F)cc1F` (stereo partly drawn) [Example 98] returned an EC50 of 200 nM.

Consider `CC1(C)Cc2c(F)cc(-c3ccc(OC[C@@H]4C[C@H]4C(=O)O)cc3)cc2O1` (racemic) [Example 21, Trans-2-((4-(4-fluoro-2,2-dimethyl-2,3-dihydrobenzofuran-6-yl)phenoxy)methyl) cyclopropanecarboxylic acid], for which the “EC50 (μM)” value was “Not active”.

Compound `O=C(O)[C@@H]1C[C@H]1CCc1ccc(-c2cccc(-n3cccn3)c2)cc1` (racemic) [Example 128, Trans-2-(2-(3′-(1H-pyrazol-1-yl)-[1,1′-biphenyl]-4-yl)ethyl) cyclopropanecarboxylic acid] registered an EC50 of 700 nM.

Regarding `O=C(O)[C@H]1C[C@@H]1COc1ccc(-c2cc(Oc3ccccc3)ccc2F)cc1F` (single isomer, unassigned) [Example 11], the midpoint of the response, the EC50, lay at 160 nM.

`CC(C)Oc1ccc(F)c(-c2ccc(OC[C@@H]3C[C@H]3C(=O)O)c(F)c2)c1` (racemic) [Example 62, Trans-2-(((2′,3-difluoro-5′-isopropoxy-[1,1′-biphenyl]-4-yl)oxy)methyl) cyclopropanecarboxylic acid] yielded an EC50 of 310 nM.

For `COC(=O)c1cccc(-c2ccc(CC[C@@H]3C[C@H]3C(=O)O)cc2)c1` (racemic) [Example 130, Trans-2-(2-(3′-(methoxycarbonyl)-[1,1′-biphenyl]-4-yl)ethyl) cyclopropanecarboxylic acid], the response was half-maximal at 800 nM (EC50).

As to `COc1ccc(OC(F)(F)F)cc1-c1ccc(CC[C@@H]2C[C@H]2C(=O)O)cc1` (racemic) [Example 79, Trans-2-(2-(2′-methoxy-5′-(trifluoromethoxy)-[1,1′-biphenyl]-4-yl)ethyl)cyclopropanecarboxylic acid], the 50% effective concentration (EC50) is 1440 nM.

In general, EC50 refers to the midpoint of the concentration-response curve.
